Reference: patent US8614179B2, “Antibacterial combination therapy for the treatment of gram positive bacterial infections” (E-Therapeutics PLC, priority 2008, dated 2013)
Values after ≈ are worked out from the molar mass of the structure shown. Where two headings read alike, the source gives them in different places.

Key:
MRSA AND VRE = test: MIC by agar dilution, MIC50/MIC90/range over MRSA and VRE strain panel; assay type: cell-based, Staphylococcus aureus; Enterococci
Protocol: In example experiments miconazole nitrate, econazole nitrate and clotrimazole were dissolved in DMSO. Colistin, D-cycloserine, fosfomycin and polymixin B were dissolved in water.
Other solvents that may be used include caster oil, pyridine, and 0.9% saline. For IV administration agents may be solubilised in polyethoxylated caster oil, or cyclodextrins such as sulfobutylether7-βcyclodextrin or hydroxypropyl-β-cyclodextrin and lactic acid. Minimum inhibitory concentrations (MICs) of a range of clinical and control bacterial organisms were measured according to BSAC (British Society for Antimicrobial Chemotherapy) guidelines (Andrews 2001), for single agents. […] MICs were measured by agar dilution. Kill curves were performed in accordance with the methods of Garrison and Nuemiller, 2007. Briefly kill profiles were generated by logarithmically plotting mean CFU/mL data over time. Total logarithmic reductions in bacterial counts were determined by subtracting 24 h CFU/mL values from starting inocula.
(§1) Stock solutions were prepared at concentrations of 1000 mg/L and 100 mg/L. To determine the MIC of miconazole, the appropriate amount of each stock solution were added to separate Petri dishes give a range of final concentrations (after the addition of 20 mL molten agar): from 0.12 to 32 mg/L. To determine the MICs of miconazole with the specific agent active on a bacterial cell surface, these concentrations of miconazole were used in addition to a fixed sub-inhibitory amount of the agent active on a bacterial cell surface. […] Volumes (20 mL) of cooled molten IST agar (oxoid) was added to each Petri dish and mixed by swirling. After drying, the plates were stored at 4° C. and protected from light. Plates were used on the day of preparation.
The test organisms were grown overnight in 5 mL IST broth. Using a dilution in 0.9% saline of 1:100, the appropriate agar plates were inoculated using a multipoint inoculator. […]
The MIC is the minimum amount of an antibiotic at which there is no visible growth of bacteria. Tiny single colonies or faint hazes were not counted as growth. […] The concentration of miconazole, with or without the cell membrane or cell wall active agent, capable of inhibiting the growth of 50% and 90% of the strains tested is reported as the MIC50 and MIC90 respectively. The range of MICs for each group of bacterial strains is also reported.

MRSA = test: microbe, parasite or virus in culture; assay type: cell-based; conditions: Staphylococcus aureus
Protocol: (§2) In example experiments miconazole nitrate, econazole nitrate and clotrimazole were dissolved in DMSO. Colistin, D-cycloserine, fosfomycin and polymixin B were dissolved in water. Nisin was suspended at 10 mg/mL in 0.02 M HCl, and the supernatant fraction following centrifugation at 10,000 g for 10 mins was used in the following experiments.
(§3) Other solvents that may be used include caster oil, pyridine, and 0.9% saline. For IV administration agents may be solubilised in polyethoxylated caster oil, or cyclodextrins such as sulfobutylether7-βcyclodextrin or hydroxypropyl-β-cyclodextrin and lactic acid. Minimum inhibitory concentrations (MICs) of a range of clinical and control bacterial organisms were measured according to BSAC (British Society for Antimicrobial Chemotherapy) guidelines (Andrews 2001), for single agents. The method of determining MICs of imidazole with colistin, D-cycloserine, fosfomycin, polymixin B, or nisin is described briefly as follows. MICs were measured by agar dilution. Kill curves were performed in accordance with the methods of Garrison and Nuemiller, 2007. Briefly kill profiles were generated by logarithmically plotting mean CFU/mL data over time. Total logarithmic reductions in bacterial counts were determined by subtracting 24 h CFU/mL values from starting inocula.
as §1
(§4) The test organisms were grown overnight in 5 mL IST broth. Using a dilution in 0.9% saline of 1:100, the appropriate agar plates were inoculated using a multipoint inoculator.
(§5) Agar plates and microtitre plates were incubated at 37° C. in air for 18-20 hours.
(§6) The MIC is the minimum amount of an antibiotic at which there is no visible growth of bacteria. Tiny single colonies or faint hazes were not counted as growth. Synergy was reported if the inhibitory effect of the drugs in combination were greater than the sum of the inhibitory effects of each drug singly. The concentration of miconazole, with or without the cell membrane or cell wall active agent, capable of inhibiting the growth of 50% and 90% of the strains tested is reported as the MIC50 and MIC90 respectively. The range of MICs for each group of bacterial strains is also reported.

[1] = test system: E1 E. gall ATCC 12359 VanC; test: organism not typed; assay type: cell-based; conditions: Table 4; strain E1 E. gall ATCC 12359 VanC; agents singly or miconazole MIC with 2.5 mg/L nisin
Protocol: as §2
as §3, with “Briefly kill profiles were generated by logarithmically plotting mean CFU/mL data over time.” left out, “inocula. […]” for “inocula.”
The MIC is the minimum amount of an antibiotic at which there is no visible growth of bacteria. Tiny single colonies or faint hazes were not counted as growth. […]

Clostridium difficile = test: MIC against clinical isolates of Clostridium difficile; assay type: cell-based; conditions: Table 5, miconazole alone or with 0.5 mg/L nisin
Protocol: as §2, §3, §1, §4, §5, §6

[2] = Table 1a, MRSA n = 27, VRE n = 5, miconazole MIC alone or with D-cycloserine fixed at 10 mg/L
[3] = Table 1b, MRSA n = 27, VRE n = 5, miconazole MIC alone or with fosfomycin fixed at 5 mg/L
[4] = Table 1c, MRSA n = 21, VRE n = 3, miconazole MIC alone or with colistin fixed at 5 mg/L
[5] = Table 1e, MRSA n = 21, VRE n = 4, miconazole MIC alone or with nisin fixed at 2.5 mg/L
[6] = Table 3, MRSA n = 27, VRE n = 5, miconazole alone, 1:1 bacitracin to miconazole, or with bacitracin fixed at 2.5 mg/L

## Clc1ccc(COC(Cn2ccnc2)c2ccc(Cl)cc2Cl)c(Cl)c1 (stereo not drawn) [Miconazole, 1-[2-(2,4-Dichlorophenyl)-2-[(2,4-dichlorophenyl)methoxy]ethyl]-1H-imidazole]
MRSA AND VRE; 24 h, Table 1d, MRSA n = 21, VRE n = 3, miconazole MIC alone or with polymixin B fixed at 20 mg/L
  MIC90: 4 µg/mL (≈ 9.61 µM)
MRSA AND VRE; 24 h, Table 1d, MRSA n = 21, VRE n = 3, miconazole MIC alone or with polymixin B fixed at 20 mg/L, read-out: MIC 50
  MIC 50: 2 µg/mL (≈ 4.81 µM)
MRSA AND VRE; [2]
  MIC90: 2 µg/mL (≈ 4.81 µM)
  MIC Range: 0.5 to 8 µg/mL
MRSA AND VRE; Table 1a, MRSA n = 27, VRE n = 5, miconazole MIC alone or with D-cycloserine fixed at 10 mg/L, read-out: MIC 50
  MIC 50: 2 µg/mL (≈ 4.81 µM)
MRSA AND VRE; [3]
  MIC 50: 2 µg/mL (≈ 4.81 µM)
  MIC90: 2 µg/mL (≈ 4.81 µM)
  MIC Range: 0.5 to 8 µg/mL
MRSA AND VRE; [4]
  MIC 50: 2 µg/mL (≈ 4.81 µM)
  MIC90: 4 µg/mL (≈ 9.61 µM)
  MIC Range: 1 to 6 µg/mL
MRSA AND VRE; [5]
  MIC 50: 2 µg/mL (≈ 4.81 µM)
  MIC90: 4 µg/mL (≈ 9.61 µM)
  MIC Range: 0.5 to 8 µg/mL
MRSA AND VRE; [6]
  MIC 50: 2 µg/mL (≈ 4.81 µM)
  MIC90: 2 µg/mL (≈ 4.81 µM)
  MIC Range: 0.5 to 8 µg/mL
MRSA AND VRE; Table 1d, MRSA n = 21, VRE n = 3, miconazole MIC alone or with polymixin B fixed at 20 mg/L
  MIC Range: 1 to 6 µg/mL
MRSA; Table 4, strain LF10, agents singly or miconazole MIC with 2.5 mg/L nisin
  MIC: 2 µg/mL
MRSA; Table 4, strain LF11, agents singly or miconazole MIC with 2.5 mg/L nisin
  MIC: 2 µg/mL
MRSA; Table 4, strain LF12, agents singly or miconazole MIC with 2.5 mg/L nisin
  MIC: 2 µg/mL
MRSA; Table 4, strain LF13, agents singly or miconazole MIC with 2.5 mg/L nisin
  MIC: 2 µg/mL
MRSA; Table 4, strain LF14, agents singly or miconazole MIC with 2.5 mg/L nisin
  MIC: 2 µg/mL
MRSA; Table 4, strain LF15, agents singly or miconazole MIC with 2.5 mg/L nisin
  MIC: 2 µg/mL
MRSA; Table 4, strain LF16, agents singly or miconazole MIC with 2.5 mg/L nisin
  MIC: 2 µg/mL
MRSA; Table 4, strain LF17, agents singly or miconazole MIC with 2.5 mg/L nisin
  MIC: 2 µg/mL
MRSA; Table 4, strain LF18, agents singly or miconazole MIC with 2.5 mg/L nisin
  MIC: 1 µg/mL
MRSA; Table 4, strain LF19, agents singly or miconazole MIC with 2.5 mg/L nisin
  MIC: 2 µg/mL
MRSA; Table 4, strain PF 15a 009521M ST22 EMRSA, agents singly or miconazole MIC with 2.5 mg/L nisin
  MIC: 1 µg/mL
MRSA; Table 4, strain PF 16a 00923R EMRSA 16, agents singly or miconazole MIC with 2.5 mg/L nisin
  MIC: 2 µg/mL
MRSA; Table 4, strain PF 99b 983237K BERIAN CLONE, agents singly or miconazole MIC with 2.5 mg/L nisin
  MIC: 2 µg/mL
MRSA; Table 4, strain PF 116a 981695K, agents singly or miconazole MIC with 2.5 mg/L nisin
  MIC: 2 µg/mL
MRSA; Table 4, strain PF 153a 026225E, agents singly or miconazole MIC with 2.5 mg/L nisin
  MIC: 0.5 µg/mL
MRSA; Table 4, strain S113 MRSA, agents singly or miconazole MIC with 2.5 mg/L nisin
  MIC: 2 µg/mL
[1]
  MIC: 1 µg/mL
Clostridium difficile; Clostridioides difficile, C. difficile clinical isolate 184, read-out: MIC
  MIC: > 16 µg/mL
Clostridium difficile; C. difficile clinical isolate 5
  MIC: >16 µg/mL
Clostridium difficile; C. difficile clinical isolate 23
  MIC: >16 µg/mL
Clostridium difficile; C. difficile clinical isolate 28
  MIC: >16 µg/mL
Clostridium difficile; C. difficile clinical isolate 30
  MIC: >16 µg/mL
Clostridium difficile; C. difficile clinical isolate 31
  MIC: >16 µg/mL
Clostridium difficile; C. difficile clinical isolate 41
  MIC: >16 µg/mL
Clostridium difficile; C. difficile clinical isolate 47
  MIC: >16 µg/mL
Clostridium difficile; C. difficile clinical isolate 57
  MIC: >16 µg/mL
Clostridium difficile; C. difficile clinical isolate 58
  MIC: >16 µg/mL
Clostridium difficile; C. difficile clinical isolate 77
  MIC: >16 µg/mL
Clostridium difficile; C. difficile clinical isolate 83
  MIC: >16 µg/mL
Clostridium difficile; C. difficile clinical isolate 84
  MIC: >16 µg/mL
Clostridium difficile; C. difficile clinical isolate 87
  MIC: >16 µg/mL
Clostridium difficile; C. difficile clinical isolate 96
  MIC: >16 µg/mL
Clostridium difficile; C. difficile clinical isolate 97
  MIC: >16 µg/mL
Clostridium difficile; C. difficile clinical isolate 98A
  MIC: >16 µg/mL
Clostridium difficile; C. difficile clinical isolate 99A
  MIC: >16 µg/mL
Clostridium difficile; C. difficile clinical isolate 102
  MIC: >16 µg/mL
Clostridium difficile; C. difficile clinical isolate 120
  MIC: >16 µg/mL
Clostridium difficile; C. difficile clinical isolate 126
  MIC: >16 µg/mL
Clostridium difficile; C. difficile clinical isolate 130
  MIC: >16 µg/mL
Clostridium difficile; C. difficile clinical isolate 169
  MIC: >16 µg/mL
Clostridium difficile; C. difficile clinical isolate 185
  MIC: >16 µg/mL
Clostridium difficile; C. difficile clinical isolate 186
  MIC: >16 µg/mL
